The results in this text go back to US12612412B2, “Antiviral heterocyclic compounds” (Enanta Pharmaceuticals, Inc., priority 2021, dated 2026).

Each structure is given as a SMILES string. pEC50: −log10 of the molar value.

The first test deals with genotype A, "Long" strain RSV. Description: RSV-A assay (CPE protection in Hep-2 cells, ATPlite readout). It counts as cell-based, Human respiratory syncytial virus (HRSV). To be noted: human respiratory syncytial virus, RSV-A Long strain, MOI 0.1, CPE protection, read-out: Human RSV-A (“Long”) EC50. From the text:
Hep-2 cells, (originally derived from tumors grown in irradiated-cortisonised weanling rats that had been injected with epidermoid carcinoma tissue from the larynx of a person, but later found to be indistinguishable from HeLa cells by PCR DNA analysis), were used for the culturing of genotype A, “Long” strain RSV. Flasks were inoculated with RSV and viral stocks were collected once cytopathic effect (CPE) was greater than 90%. Viral stocks in 25% sucrose media were snap frozen using liquid nitrogen to increase viral stability. Viral stock titers were quantified by tissue culture infectious dose 50% (TCID50) using 8,000 cells per well and 3-fold viral dilutions across a 96-well plate, cultured for 4 days. Viral stock titers were also quantified by a plaque forming unit assay, as described elsewhere.
Following extensive parameter testing, the final assay is run as follows: Hep-2 cells are seeded into the inner 60 wells of a 96-well plate at 8,000 cells per well in a volume of 50 μL using Growth Media (DMEM without phenol red, 1% L-Glut, 1% Penn/Strep, 1% nonessential amino acids, 10% heat-inactivated FBS). 2-fold serial dilutions of control and test compounds are added to the wells in duplicate in a total volume of 25 μL. Viral stock is then added to the wells at a multiplicity of infection (MOI) of 0.1 in a volume of 25 μL, bringing the total volume of each well to 100 μL. The MOI is calculated using the PFU/mL, or TCID50 if unavailable. Each 96-well plate has a control column of 6 wells with cells and virus but no compound (negative control, max CPE), a column with cells but no compound or virus (positive control, minimum CPE), and a column with no cells or virus or compound (background plate/reagent control). The control wells with cells but no virus are given an additional 25 μL of growth media containing an equal quantity of sucrose as those wells receiving the viral stock in order to keep consistent in media and volume conditions. The outer wells of the plate are filled with 125 μL of moat media (DMEM, 1% Penn/Strep) to act as a thermal and evaporative moat around the test wells. Following a 5-day incubation period, the plates are read using ATPlite (50 uL added per well), which quantifies the amount of ATP (a measure of cell health) present in each well. Assay plates are read using the Envision luminometer. […] EC50 ranges are as follows: A<0.2 μM; B>0.2 μM.
A general note: Cellular ATP, detected with luciferase, serves as a proxy for viable cell number.
On to `COc1cc(C(=O)NCC(O)(c2cc3c(c(-c4cc(F)c(Cl)c(F)c4)n2)OC[C@]3(C)C(N)=O)C(F)(F)F)cc2cn(C3CC3)nc12` (some centres unmarked) [Example 1245], for which the pEC50 is above 6.70.

Turning to `COc1cc(C(=O)NC[C@](O)(c2cc3c(c(-c4cc(F)cc(F)c4)n2)OC[C@]3(C)C(N)=O)C2CC2)cc2cn(C3CC3)nc12` [Example 1276], the pEC50 is above 6.70.

In the case of `C[C@]1(C(N)=O)COc2c1cc([C@@](O)(CNC(=O)c1cc(OC(F)F)c3nn(C4CC4)cc3c1)C1CC1)nc2-c1cc(Cl)c(F)cc1F` [Example 1212], the pEC50 is above 6.70.

As to `COc1cc(C(=O)NC[C@](O)(c2cc3c(c(-c4ccc(Cl)c(F)c4Cl)n2)OC[C@]3(C)C(N)=O)C(F)(F)F)cc2cn(C3CC3)nc12` [Example 1260], the pEC50 was above 6.70.

As to `CNC(=O)[C@@]1(C)COc2c1cc([C@@](O)(CNC(=O)c1cc(OC)c3nn(C4CC4)cc3c1)C(F)(F)F)nc2-c1ccc(F)c(F)c1Cl` [Example 1202], the pEC50 was above 6.70.

Turning to `COc1cc(C(=O)NC[C@@](O)(c2cc3c(c(C4=CCN(C(=O)OC(C)(C)C)CC4)n2)OC[C@]3(C)C(N)=O)C(F)(F)F)cc2cn(C3CC3)nc12` [Example 1239], the pEC50 was below 6.70.

Turning to `COc1cc(C(=O)NCC(O)(c2cc3c(c(Br)n2)OC[C@]3(C)C(N)=O)C(F)(F)F)cc2cn(C3CC3)nc12` (some centres unmarked) [Example 890], the pEC50 is below 6.70.

`COc1cc(C(=O)NCC(O)(c2cc3c(c(-c4cc(Cl)cc(Cl)c4)n2)OC[C@]3(C)C(N)=O)C(F)(F)F)cc2cn(C3CC3)nc12` (some centres unmarked) [Example 1256]: the pEC50 was above 6.70.

Take `COc1cc(C(=O)NC[C@@](O)(c2cc3c(c(-c4ccc(F)cc4F)n2)OC[C@]3(C)C(N)=O)C(F)(F)F)cc2cn(C3CC3)nc12` [Example 900]: the pEC50 is above 6.70.

`CCNC(=O)[C@@]1(C)COc2c1cc([C@@](O)(CNC(=O)c1cc(OC)c3nn(C4CC4)cc3c1)C(F)(F)F)nc2-c1ccc(F)cc1` [Example 1171]: the pEC50 was above 6.70.

With `CNC(=O)[C@@]1(C)COc2c1cc([C@@](O)(CNC(=O)c1cc(OC)c3nn(C4CC4)cc3c1)C(F)(F)F)nc2-c1cc(Cl)c(F)cc1F` [Example 1203], the pEC50 was above 6.70.

Regarding `COc1cc(C(=O)NC[C@](O)(c2cc3c(c(-c4ccc(F)c(Cl)c4F)n2)OC[C@]3(C)C(N)=O)C2(F)CC2)cc2cc(Br)cnc12` [Example 1114], the pEC50 is above 6.70.

The test is the same for the next values; noted with them: human respiratory syncytial virus, genotype A “Long” strain RSV, MOI 0.1, CPE protection, read-out: Human RSV-A (“Long”).
As to `COc1cc(C(=O)NC[C@](O)(c2cc3c(c(-c4ccc(F)cc4Cl)n2)OC[C@]3(C)C(N)=O)C2CC2)cc2cn(C3CC3)nc12` [Example 535], the pEC50 was above 6.70.

With `C[C@]1(C(N)=O)COc2c1cc([C@@](O)(CNC(=O)c1ccccn1)C(F)(F)F)nc2-c1ccc(F)cc1` [Example 421], the pEC50 was below 6.70.

`C[C@]1(C(N)=O)COc2c1cc([C@@](O)(CNC(=O)c1n[nH]c3ncccc13)C(F)(F)F)nc2-c1ccc(F)cc1` [Example 393]: the pEC50 is below 6.70.

As for `Cc1ccc2cc(C(=O)NC[C@](O)(c3cc4c(c(-c5ccc(F)c(Cl)c5)n3)OC[C@]4(C)C(N)=O)C(F)(F)F)cc(N3CCCC3=O)c2n1` [Example 39], the pEC50 is below 6.70.

Turning to `C[C@]1(C(N)=O)COc2c1cc([C@@](O)(CNC(=O)c1ccnc3ccccc13)C(F)(F)F)nc2-c1ccc(F)cc1` [Example 399], the pEC50 is below 6.70.

With `CC[C@@]1(C(N)=O)COc2c1cc([C@@](O)(CNC(=O)c1cc(OC)c3ncc(C(F)(F)F)cc3c1)C(F)(F)F)nc2-c1ccc(F)cc1` [Example 248], the pEC50 is below 6.70.

For `Cc1nc2cc(C(=O)NC[C@](O)(c3cc4c(c(-c5ccc(F)cc5)n3)OC[C@]4(C)C(N)=O)C(F)(F)F)ccc2o1` [Example 375], the pEC50 is below 6.70.

With `C[C@]1(C(N)=O)COc2c1cc([C@@](O)(CNC(=O)c1cn3ccccc3n1)C(F)(F)F)nc2-c1ccc(F)cc1` [Example 413], the pEC50 was below 6.70.

Take `C[C@]1(C(N)=O)COc2c1cc([C@@](O)(CNC(=O)c1cc3cccc(F)c3s1)C(F)(F)F)nc2-c1ccc(F)cc1` [Example 379]: the pEC50 is below 6.70.

For `COc1cc(C(=O)NC[C@](O)(c2cc3c(c(-c4ccc(F)cc4)n2)OC[C@]3(C(N)=O)C2CC2)C(F)(F)F)cc2cc(Cl)c(C)nc12` [Example 275], the pEC50 was above 6.70.

With `COc1cc(C(=O)NC[C@](O)(c2cc3c(c(-c4ccc(F)cc4)n2)OC[C@@]3(CF)C(N)=O)C(F)(F)F)cn2cc(C3CC3)nc12` [Example 291], the pEC50 is below 6.70.

Consider `C[C@]1(C(N)=O)COc2c1cc([C@@](O)(CNC(=O)c1cc3cn[nH]c3cc1C1CC1)C(F)(F)F)nc2-c1ccc(F)cc1` [Example 126], for which the pEC50 is below 6.70.

As to `C[C@]1(C(N)=O)COc2c1cc([C@@](O)(CNC(=O)c1cn3cc(OC4CC4)ccc3n1)C(F)(F)F)nc2-c1ccc(F)cc1` [Example 813], the pEC50 was below 6.70.

For `COc1cnc2ccc(C(=O)NC[C@](O)(c3cc4c(c(-c5ccc(F)cc5)n3)OC[C@]4(C)C(N)=O)C(F)(F)F)cc2c1` [Example 229], the pEC50 was above 6.70.

`C[C@]1(C(N)=O)COc2c1cc([C@@](O)(CNC(=O)c1ccc3sc(N)nc3c1)C(F)(F)F)nc2-c1ccc(F)cc1` [Example 190]: the pEC50 is below 6.70.

Consider `C[C@]1(C(N)=O)COc2c1cc([C@@](O)(CNC(=O)c1ccc3nc(NC(=N)N)sc3c1)C(F)(F)F)nc2-c1ccc(F)cc1` [Example 159], for which the pEC50 is above 6.70.

`C[C@]1(C(N)=O)COc2c1cc([C@@](O)(CNC(=O)c1ccc3nc(C(N)=O)sc3c1)C(F)(F)F)nc2-c1ccc(F)cc1` [Example 130]: the pEC50 was above 6.70.

In the case of `C[C@]1(C(N)=O)COc2c1cc([C@@](O)(CNC(=O)c1cc(OC3CC3)n3nc(C4CC4)cc3c1)C1CC1)nc2-c1ccc(F)cc1` [Example 331], the pEC50 was above 6.70.

For `C[C@]1(C(N)=O)COc2c1cc([C@@](O)(CNC(=O)c1ccn3nc(C4CC4)cc3c1)C(F)(F)F)nc2-c1ccc(F)cc1` [Example 88], the pEC50 was above 6.70.

Turning to `Cc1ccc2cc(C(=O)NC[C@](O)(c3cc4c(c(-c5ccc(F)cc5)n3)OC[C@]4(C)C(N)=O)C(F)(F)F)[nH]c2c1` [Example 385], the pEC50 is below 6.70.

As to `COc1cc(C(=O)NC[C@](O)(c2cc3c(c(-c4ccc(F)cc4)n2)OC[C@]3(C)C(N)=O)C2CC2)ccc1OC1CC1` [Example 316], the pEC50 is above 6.70.

Take `C[C@]1(C(N)=O)COc2c1cc([C@@](O)(CNC(=O)c1cc(Br)c3oc(N)nc3c1)C(F)(F)F)nc2-c1ccc(F)cc1` [Example 202]: the pEC50 is above 6.70.

As to `COc1cc(C(=O)NC[C@](O)(c2cc3c(c(-c4ccc(F)cc4)n2)OC[C@]3(CCl)C(N)=O)C(F)(F)F)cc2cc(C)c(C)nc12` [Example 233, (S)-3-(chloromethyl)-7-(4-fluorophenyl)-5-((S)-1,1,1-trifluoro-2-hydroxy-3-(8-methoxy-2,3-dimethylquinoline-6-carboxamido)propan-2-yl)-2,3-dihydrofuro[2,3-c]pyridine-3-carboxamide], the pEC50 was above 6.70.

In the case of `COc1cc(C(=O)NC[C@](O)(c2cc3c(c(-c4ccc(F)cc4)n2)OC[C@]3(C(N)=O)C2CC2)C(F)(F)F)cc2cn(C(F)F)nc12` [Example 266], the pEC50 was below 6.70.

For `C[C@]1(C(N)=O)COc2c1cc([C@@](O)(CNC(=O)c1ccc3ccsc3c1)C(F)(F)F)nc2-c1ccc(F)cc1` [Example 346], the pEC50 was below 6.70.

`COc1cc(C(=O)NC[C@](O)(c2cc3c(c(-c4ccc(F)cc4)n2)OC[C@]3(C)C(N)=O)C(F)(F)F)cc2cn(CC(F)(F)F)nc12` [Example 99]: the pEC50 is above 6.70.

With `C[C@]1(C(N)=O)COc2c1cc([C@@](O)(CNC(=O)c1cnoc1C1CC1)C(F)(F)F)nc2-c1ccc(F)cc1` [Example 342], the pEC50 was below 6.70.

Regarding `C[C@]1(C(N)=O)COc2c1cc([C@@](O)(CNC(=O)c1cc3cnccc3[nH]1)C(F)(F)F)nc2-c1ccc(F)cc1` [Example 370], the pEC50 is above 6.70.

As to `COc1cccc(-n2ccc(C(=O)NC[C@](O)(c3cc4c(c(-c5ccc(F)cc5)n3)OC[C@]4(C)C(N)=O)C(F)(F)F)n2)c1` [Example 213], the pEC50 is below 6.70.

Consider `CC[C@]1(C(N)=O)COc2c1cc([C@@](O)(CNC(=O)c1ccc(OC3CC3)c(OC)c1)C(F)(F)F)nc2-c1ccc(F)cc1` [Example 241], for which the pEC50 was above 6.70.

Turning to `C[C@]1(C(N)=O)COc2c1cc([C@@](O)(CNC(=O)c1cc(F)c3[nH]c(C4CC4)nc3c1)C(F)(F)F)nc2-c1ccc(F)cc1` [Example 93], the pEC50 was above 6.70.

For the compound `Cc1cc(C(=O)NC[C@](O)(c2cc3c(c(-c4ccc(F)cc4)n2)OC[C@]3(C)C(N)=O)C(F)(F)F)c2ccccc2n1` [Example 432], the pEC50 is below 6.70.
